Source: publication PMC9127186, “Molecular Basis Underlying Hepatobiliary and Renal Excretion of Phenolic Acids of Salvia miltiorrhiza Roots (Danshen)” (Frontiers in Pharmacology, 2022)

Tests used:
rat Oat1 = target: T1, rat Oat1 (Rattus norvegicus, UniProt O35956); test: Cellular transport assay, HEK-293 cells expressing rat Oat1; conditions: for TransportTC/TransportMC ratio (net transport ratio): 10 min; for K m: rat renal basolateral uptake Oat1, 5 min incubation, concentrations in Table 1
T1 sequence (O35956 1-551): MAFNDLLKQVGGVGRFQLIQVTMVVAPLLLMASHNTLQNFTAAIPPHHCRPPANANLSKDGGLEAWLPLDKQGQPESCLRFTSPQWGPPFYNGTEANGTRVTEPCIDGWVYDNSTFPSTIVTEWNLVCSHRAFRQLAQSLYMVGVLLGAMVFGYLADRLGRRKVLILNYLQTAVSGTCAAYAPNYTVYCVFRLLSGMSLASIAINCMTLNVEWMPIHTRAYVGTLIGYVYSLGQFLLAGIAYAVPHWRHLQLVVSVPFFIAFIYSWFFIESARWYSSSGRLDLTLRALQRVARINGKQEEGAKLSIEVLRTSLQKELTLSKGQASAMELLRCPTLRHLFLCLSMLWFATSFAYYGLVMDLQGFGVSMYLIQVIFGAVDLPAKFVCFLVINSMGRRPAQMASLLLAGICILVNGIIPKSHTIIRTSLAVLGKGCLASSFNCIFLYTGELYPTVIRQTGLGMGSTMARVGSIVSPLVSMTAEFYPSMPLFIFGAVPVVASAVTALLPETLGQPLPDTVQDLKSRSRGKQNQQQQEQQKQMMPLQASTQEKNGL
Procedure: (§1) Briefly, HEK-293 cells were grown, at 37°C and 5% CO2, in Dulbecco’s modified Eagle’s medium, which was fortified with 10% fetal bovine serum, 1% minimal essential medium nonessential amino acids, and 1% antibiotic-antimycotic solution. A day before transfection, cells were seeded onto 24-well poly-D-lysine-coated plates at a density of 2 × 10^5 cells per well. After incubation at 37°C and 5% CO2 for 24 h, the expression plasmid and the empty vector were introduced separately into the HEK293 cells with Lipofectamine 2000 transfection reagent (Invitrogen, Carlsbad, CA, United States), according to the manufacturer’s protocol to yield transporter-expressing cells and mock cells, respectively.
(§2) Transport studies were performed 48 h after the transfection. […] Differential uptake between the transfected cells and mock cells was defined as net transport ratio (TransportTC/TransportMC ratio), where TransportTC and TransportMC are the transport rates of a test Danshen compound into transfected and mock cells, respectively. […] The determination was performed under linear uptake conditions by incubation for 5 min. Table 1 summarizes the final concentrations of the test Danshen compounds for different transporters. All the incubation samples were analyzed by liquid chromatography/mass spectrometry.
(§3) GraFit software (version 5.0; Erithacus Software Ltd, Surrey, United Kingdom) was used to determine the K m and V max values by nonlinear regression analysis of initial transport rates as a function of substrate concentration.

rat Oatp1b2 = target: T2, rat Oatp1b2 (Rattus norvegicus, UniProt Q9QZX8); test: Cellular transport assay, HEK-293 cells expressing rat Oatp1b2; conditions: for TransportTC/TransportMC ratio (net transport ratio): 10 min
T2 sequence (Q9QZX8 1-687): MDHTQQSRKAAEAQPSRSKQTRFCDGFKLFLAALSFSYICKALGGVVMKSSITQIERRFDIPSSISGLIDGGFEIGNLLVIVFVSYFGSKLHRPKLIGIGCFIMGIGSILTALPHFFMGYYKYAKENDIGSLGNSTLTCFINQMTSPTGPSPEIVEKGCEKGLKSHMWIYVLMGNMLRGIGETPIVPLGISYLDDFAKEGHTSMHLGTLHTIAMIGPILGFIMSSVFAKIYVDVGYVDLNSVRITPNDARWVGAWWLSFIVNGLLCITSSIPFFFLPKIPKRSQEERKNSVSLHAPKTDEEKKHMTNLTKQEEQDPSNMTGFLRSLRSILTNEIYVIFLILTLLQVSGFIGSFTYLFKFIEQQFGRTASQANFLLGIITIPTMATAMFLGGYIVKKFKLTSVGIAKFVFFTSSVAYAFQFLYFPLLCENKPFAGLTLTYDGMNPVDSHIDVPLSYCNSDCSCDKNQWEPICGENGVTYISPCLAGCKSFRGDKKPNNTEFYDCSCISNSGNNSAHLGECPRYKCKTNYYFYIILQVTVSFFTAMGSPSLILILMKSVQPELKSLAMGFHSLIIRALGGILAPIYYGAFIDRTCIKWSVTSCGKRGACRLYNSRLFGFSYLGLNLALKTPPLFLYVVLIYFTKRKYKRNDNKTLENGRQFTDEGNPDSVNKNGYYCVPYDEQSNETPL
Procedure: as §1, §2, §3

human OAT4 = target: T3, human OAT4 (Homo sapiens, UniProt Q9NSA0); test: Cellular transport assay, HEK-293 cells expressing human OAT4; conditions: for TransportTC/TransportMC ratio (net transport ratio): 10 min; for K m: human renal apical uptake OAT4, 5 min incubation, concentrations in Table 1
T3 sequence (Q9NSA0 1-550): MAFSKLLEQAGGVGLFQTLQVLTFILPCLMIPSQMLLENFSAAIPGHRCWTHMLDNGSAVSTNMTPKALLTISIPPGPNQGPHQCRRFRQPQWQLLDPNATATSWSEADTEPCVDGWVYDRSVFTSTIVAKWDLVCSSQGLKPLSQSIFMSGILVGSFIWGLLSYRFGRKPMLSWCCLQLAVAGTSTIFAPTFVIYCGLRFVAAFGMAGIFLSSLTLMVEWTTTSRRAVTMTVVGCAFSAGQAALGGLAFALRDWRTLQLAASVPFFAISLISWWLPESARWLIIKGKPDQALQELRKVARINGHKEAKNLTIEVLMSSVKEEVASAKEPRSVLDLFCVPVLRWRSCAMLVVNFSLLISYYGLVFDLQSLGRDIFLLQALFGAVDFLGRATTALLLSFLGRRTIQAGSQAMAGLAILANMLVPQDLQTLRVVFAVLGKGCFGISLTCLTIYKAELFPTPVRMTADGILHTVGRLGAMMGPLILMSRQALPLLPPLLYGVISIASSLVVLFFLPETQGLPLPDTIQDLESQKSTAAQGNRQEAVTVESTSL
Procedure: as §1, §2, §3

[1] = Danshen phenolic acid at 100 μM final concentration, rat Oat1-transfected vs mock cells
[2] = Danshen phenolic acid at 100 μM final concentration, rat Oatp1b2-transfected vs mock cells
[3] = rat hepatic sinusoidal uptake Oatp1b2, 5 min incubation, concentrations in Table 1
[4] = Danshen phenolic acid at 100 μM final concentration, human OAT4-transfected vs mock cells

microsomal CLint (rat Oatp1b2; rat) [µL/min/mg] | Compound | TransportTC/TransportMC ratio (net transport ratio) (rat Oat1; [1]) | substrate of rat Oatp1b2 (rat Oatp1b2) | TransportTC/TransportMC ratio (net transport ratio) (rat Oatp1b2; [2]) | K m (rat Oatp1b2; [3]) [µM] | TransportTC/TransportMC ratio (net transport ratio) (human OAT4; [4]) | microsomal CLint (rat Oat1; rat) [µL/min/mg] | K m (rat Oat1) [µM] | substrate of rat Oat1 (rat Oat1) | TransportTC/TransportMC ratio (net transport ratio) (rat Oat1; rat, 100 μM) | microsomal CLint (rat Oat1; rat, other cell line) [µL/min/mg] | TransportTC/TransportMC ratio (net transport ratio) (rat Oatp1b2; rat, 100 μM) | microsomal CLint (rat Oatp1b2; rat, other cell line) [µL/min/mg] | substrate of human OAT4 (human OAT4) | K m (human OAT4) | TransportTC/TransportMC ratio (net transport ratio) (human OAT4; human, 100 μM) | microsomal CLint (human OAT4; human, other cell line) [µL/min/mg] | CLint (rat Oatp1b2; rat hepatic sinusoidal uptake Oatp1b2) [μL/min/mg protein] | V max (rat Oatp1b2; [3]) [pmol/min/mg protein]
0.41 | O=C(/C=C/c1ccc(O)c2c1[C@H](C(=O)O)[C@@H](c1ccc(O)c(O)c1)O2)O[C@H](Cc1ccc(O)c(O)c1)C(=O)O [Lithospermic acid, lithospermic acid] | 1.36 ± 0.35 | substrates | 11.6 ± 0.7 | 91.3 ± 10.6 | 2.91 ± 0.17 |  |  |  |  |  |  |  |  |  |  |  |  | 
 | O=C(O)c1ccc(O)c(O)c1 [Protocatechuic acid, protocatechuic acid] | 104 ± 20 | neither protocatechuic acid nor tanshinol was a substrate | 1.32 ± 0.45 |  | 1.56 ± 0.46 | 4.07 | 110 ± 19 |  |  |  |  |  |  |  |  |  |  | 
 | O=C(/C=C/c1ccc(O)c(O)c1)O[C@H](Cc1ccc(O)c(O)c1)C(=O)O [Rosmarinic acid, rosmarinic acid] |  | substrates |  | 2049 ± 418 |  |  | 59.2 ± 4.7 | substrates | 150 ± 46 | 3.47 | 17.0 ± 2.8 | 0.08 | relatively weak substrates | 325 ± 53 µM | 7.27 ± 0.77 | 0.15 |  | 
 | O=C(/C=C/c1ccc(O)c(O)c1/C=C/c1ccc(O)c(O)c1)O[C@H](Cc1ccc(O)c(O)c1)C(=O)O [Salvianolic acid A, salvianolic acid A] |  | substrate |  | 50.5 ± 12.8 |  |  |  | not substrates | 1.13 ± 0.64 |  | 7.52 ± 1.31 | 0.38 |  |  | 1.56 ± 0.23 |  |  | 
1.23 | O=C(O)Cc1c(/C=C/C(=O)O[C@H](Cc2ccc(O)c(O)c2)C(=O)O)ccc(O)c1O [Salvianolic acid D, salvianolic acid D] | 11.5 ± 2.9 | substrates | 16.0 ± 0.8 | 464 ± 62 | 2.87 ± 0.09 | 4.72 | 24.4 ± 3.3 |  |  |  |  |  |  |  |  |  |  | 
 | O=C(O)C(O)Cc1ccc(O)c(O)c1 (stereo not shown) [Tanshinol, tanshinol] |  |  |  |  |  |  | 154 ± 13 |  |  | 4.13 |  |  |  | 3,442 ± 940 μM |  |  |  | 
 | salvianolic acid B | 1.56 ± 0.67 | substrates | 30.0 ± 0.6 | 20.5 ± 1.9 | 0.95 ± 0.23 |  |  |  |  |  |  |  |  |  |  |  | 0.87 | 17.7 ± 0.5
